Tests used:
[1] = Inhibition of hyperparathyroidism: serum PTH in 1α-hydroxylase knock out mice; assay type: in vivo; conditions: 0.6 μg/kg three times a week; 1α-OH KO mice; serum PTH ELISA
Excerpt: We performed long-term (7 days) in vivo experiments comparing the parathyroid hormone (PTH) levels following administration of compound 10 (aka VDRA) to an equivalent dose of paricalcitol (PC), a VDR agonist used to treat secondary hyperparathyroidism.
For this study, we used 1α-hydroxylase (1α-OH) knock out (KO) mice, which lack 1α-OH, an enzyme that converts 25(OH)VitD3 to the hormonally active form, 1,25-dihydroxyvitamin D3 (1,25(OH)2VitD3). These mice are designed to have a low vitamin D level at baseline and are hypocalcemic.
We administered 0.6 μg/kg of compound 10 or paricalcitol three times a week (Mon, Wed, Fri) for three weeks. Serum PTH level was measured using a PTH (intact, mouse) ELISA immunoassay (Alpco, Salem, Mass.).

[2] = target: T1, VDR (GAL4-DBD/VDR-LBD fusion protein in HEK293T cells) (Homo sapiens, UniProt P11473); assay: GeneBLAzer cell-based VDR assay (VDR-UAS-bla HEK 293T, beta-lactamase reporter); conditions: for Activity: agonist or antagonist at VDR, compounds of formula (I) tested as mixture of diastereomers; for VDR agonistic activity (degree, in words): high throughput screen of vitamin D receptor activity
T1 construct: the targeting construct (GAL4-DBD/VDR-LBD) fusion protein engineered in a HEK293T cell line containing 7XUAS-bla; host or cells: GeneBLAzer VDR-UAS-bla HEK 293T cells
T1 sequence (P11473 127-423 limits assumed): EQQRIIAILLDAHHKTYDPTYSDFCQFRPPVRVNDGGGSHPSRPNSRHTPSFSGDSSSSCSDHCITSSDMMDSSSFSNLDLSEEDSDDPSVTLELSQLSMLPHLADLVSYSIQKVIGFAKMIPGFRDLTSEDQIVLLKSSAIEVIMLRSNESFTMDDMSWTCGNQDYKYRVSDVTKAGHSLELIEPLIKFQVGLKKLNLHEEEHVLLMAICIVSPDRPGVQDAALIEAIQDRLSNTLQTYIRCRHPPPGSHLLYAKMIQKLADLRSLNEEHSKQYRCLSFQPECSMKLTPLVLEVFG
Excerpt: High throughput assay validation of the top ranked unique molecules from each of three PDB conformations on the basis of docking score (glide score+ionization state penalty). From this priority list 200 of the best ranked molecules, following ADMET evaluation, were purchased and subjected to binding assays. The compounds of formula (I) were obtained and tested as a mixture of diastereomers.
To determine which compounds identified by virtual screens are actually capable of regulating the transcriptional profile of VDR, we performed GeneBLAzer® Cell-Based VDR Assay (kit was bought from Invitrogen and assay performed as per instructions). Upon binding of a VDR agonist to the targeting construct (GAL4-DBD/VDR-LBD) fusion protein engineered in a HEK293T cell line containing 7XUAS-bla, a transcriptional cascade is initiated that produces β-lactamase (BLA). In the presence of the BLA LiveBLAzer™ substrate, cells expressing BLA will fluoresce blue (460 nm), while those not expressing BLA will fluoresce green (530 nm); higher […] ratio indicating the activation of VDR, whereas in presence of calcitriol (potent agonist) diminishing of this ratio indicates an antagonist behavior of the ligand. The agonist and antagonist abilities of CADD-selected compounds were determined in six-point concentration profile and compared with vehicle.
GeneBLAzer® VDR-UAS-bla HEK 293T cells were purchased from Invitrogen (Cat# K1700). The cells were cultured in growth medium in a humidified (37° C./5% CO2) incubator following the manufacture's instruction. Test compounds (ChemBridge, San Diego, Calif.) and Calcitriol (1α,25-Dihydroxyvitamin D3, Sigma) were dissolved in 100% DMSO(Sigma) at 1000-fold stock concentration and stored at −20° C., which were diluted in assay medium immediately prior to use. LiverBLAzer-FRET B/G loading kit was purchased from Invitrogen.
The GeneBLAzer® VDR-UAS-bla HEK 293T cell-based assay was used to screen 200 compounds for activity at the vitamin D receptor. The assay was run in triplicate following the manufacture's instruction. Briefly, 2×10^4 cells in 32 μl assay medium were added to each well of a 384-well black-wall assay plate (Corning Incorporated, Cat#3712). To each well was added 8 al of compound solution diluted in assay medium, the cells were incubated in a humidified (37° C./5% CO2) incubator for 5 hours. The cell-free wells (containing 32 μl assay medium only) and unstimulated cell wells were treated in parallel with the same concentration of DMSO in assay medium, which were used as background controls and blank controls, respectively. Calcitriol was used as a positive control. To each well was added 8 μl of LiverBLAzer-FRET B/G substrate mixture. The plate was covered with plate sealer and incubated at room temperature for 2 hours in the dark. Fluorescence emission was measured on SpectraMax plate reader at 460 nm and 530 nm with excitation set to 409 nm. After subtraction of background, the average value at 460 nm was divided by the average value at 530 nm to obtain the 460/530 ratio.

[3] = Calcemic effects: serum ionized calcium in 1α-hydroxylase knock out mice; assay type: in vivo; conditions: 1α-OH KO mice; for increase in serum calcium level compared to the vehicle, long term: 0.6 μg/kg for one week (three administrations); for increase in serum calcium level compared to the vehicle, short term: 24 hours after administration, 0.60 and 3.0 μg/kg doses
Protocol: We performed short-term (24 hours) and long-term (7 days) in vivo experiments comparing the calcemic effect of compound 10 (aka VDRA) to an equivalent dose of calcitriol.
For this study, we used 1α-hydroxylase (1α-OH) knock out (KO) mice, which lack 1α-OH, an enzyme that converts 25(OH)VitD3 to the hormonally active form, 1,25-dihydroxyvitamin D3 (1,25(OH)2VitD3) or calcitriol. These mice are designed to have a low vitamin D level at baseline and are hypocalcemic.
For the short term experiment, we administered 0.6 μg/kg (therapeutic dose) and 3 μg/kg (supratherapeutic dose) of vehicle, calcitriol or compound 10, and then measured serum calcium level 24 hours after administration.
For the long-term experiment, we administered 0.6 μg/kg of vehicle, calcitriol or compound 10 for one week. We administered the drugs on Wednesday, Friday, and Monday, and measured serum calcium level on the following Tuesday.
Serum ionized calcium levels were measured using clinical grade iSTAT system (Abbott laboratories).

[4] = Phenylephrine (PE) induced cardiac hypertrophy in mice; assay type: in vivo; conditions: PE 30 mg/kg/day via osmotic pump 7 days; compound 60 ng/kg 3×/week intraperitoneally
Protocol: FIGS. 5A-5C are bar graphs depicting the anti-hypertrophic potential of compound 10 (aka VDRA) in phenylephrine (PE) induced cardiac hypertrophy in mice (see Example 6). […] Mice were infused with PE (30 mg/kg/day) via osmotic pump for 7 days. In FIGS. 5A-5C (i) Con=control group with the same amount of saline infusion by osmotic pump; (ii) Vehicle or VDRA ([…]) were injected 3×/week intraperitoneally; (iii) total volume injected=50 μL/animal/injection; (iv) *=p<0.05 vs Control; (v) **=p<0.05 vs Vehicle; and (vi) N=4.
The anti-hypertrophic potential of compound 10 (aka VDRA) in phenylephrine (PE) induced cardiac hypertrophy in mice was evaluated in vivo. WT mice were infused with phenylephrine (PE) (30 mg/kg/day) via osmotic pump for 7 days. After 7 days, the mice were sacrificed, organ weighed, and hearts were obtained for mRNA processing. Vehicle or compound 10 (60 ng/kg) were injected 3×/week intraperitoneally (total volume injected=50 μL/animal/injection).

[5] = test system: adult rat cardiomyocytes (ARCMs); assay: Phenylephrine-induced hypertrophy in adult rat cardiomyocytes in vitro (ANP level); assay type: cell-based; conditions: pre-treated 24 hours, then PE (100 μM) for 48 hours
Protocol: We used adult rat cardiomyocytes (ARCMs) in these studies because heart failure is predominantly a disease of the adult heart. ARCM cultures were prepared from the hearts of female Sprague-Dawley rats by enzymatic dissociation using 0.3% collagenase. Each heart yields about 3-4×10^6 viable ventricular cardiomyocytes. Freshly isolated adult cardiomyocyte cultures contain >90% rod-shaped myocytes and less than 1% of the cells are non-myocytes. The cells were used within 24 hours of plating.
We examined how the response of cardiomyocytes to specific hypertrophic stimulus, phenylephrine (PE) is modulated by pretreatment with compound 10 as compared to known activated vitamin D analog, paricalcitol (PC). In this experiment, ARCM was pre-treated with vehicle, compound 10 (different doses) or paricalcitol ([…]) for 24 hours. The cells were then exposed to PE (100 μM) or vehicle for 48 hours. After exposing the cells to hypertrophic stimulation for 48 hours, they were collected and analyzed for several well-established parameters of cardiac hypertrophy, such as tissue atrial natriuretic peptide (ANP) level.

C[C@H](/C=C/[C@H](C)C(C)(C)O)[C@H]1CC[C@H]2/C(=C/C=C3C[C@@H](O)C[C@H](O)C3)CCC[C@]12C [paricalcitol, reference compound]
PTH levels [1]: significantly reduced

Cc1cccc(OCC(=O)Nc2ccc(S(=O)(=O)Nc3ccc(C)cc3C)cc2)c1 [Compound 23]
Activity [2]: Antagonist

CCOCCOC(=O)C1=C(C)NC2=C(C(=O)CC(c3ccc(Cl)cc3)C2)C1c1ccc(F)cc1 (stereo not drawn) [Compound 16]
Activity [2]: Agonist

CCOc1cc(C2C(C(=O)OCCSCC)=C(C)NC3=C2C(=O)CC(c2ccc(OC)cc2)C3)ccc1O (stereo not drawn) [Compound 7]
Activity [2]: Agonist

Cc1cc(C)c(NS(=O)(=O)c2ccc(NC(=O)COc3ccc(Cl)cc3)cc2)c(C)c1 [Compound 19]
Activity [2]: Agonist

COCCOC(=O)C1=C(C)NC2=C(C(=O)CC(c3ccc(Cl)cc3)C2)C1c1ccc(C)cc1 (stereo not drawn) [Compound 14]
Activity [2]: Agonist

CCOC(=O)C1=C(C)NC2=C(C(=O)CC(c3ccc(OC)cc3)C2)C1c1ccc(O)cc1 (stereo not drawn) [Compound 9]
Activity [2]: Antagonist

CCSCCOC(=O)C1=C(C)NC2=C(C(=O)CC(c3ccc(Cl)cc3)C2)C1c1ccccc1OC (stereo not drawn) [Compound 15]
Activity [2]: Agonist

CCOC(=O)C1=C(C)NC2=C(C(=O)CC(c3ccc(OC)cc3)C2)C1c1cccc(O)c1 (stereo not drawn) [Compound 4]
Activity [2]: Antagonist

C=C1/C(=C\C=C2/CCC[C@]3(C)[C@@H]([C@H](C)CCCC(C)(C)O)CC[C@@H]23)C[C@@H](O)C[C@@H]1O [calcitriol, 1α,25-Dihydroxyvitamin D3, reference compound]
increase in serum calcium level compared to the vehicle, long term [3]: about 45% | increase in serum calcium level compared to the vehicle, short term [3]: did not show significant increase

COc1ccc(C2CC(=O)C3=C(C2)NC(C)=C(C(=O)OCCOc2ccccc2)C3c2ccccc2)cc1 (stereo not drawn) [Compound 12]
Activity [2]: Agonist

CCSCCOC(=O)C1=C(C)NC2=C(C(=O)CC(c3ccc(Cl)cc3)C2)C1c1ccccc1F (stereo not drawn) [Compound 11]
Activity [2]: Agonist

CCc1ccc(OCC(=O)Nc2ccc(S(=O)(=O)Nc3cc(C)cc(C)c3)cc2)cc1 [Compound 21]
Activity [2]: Antagonist

Cc1cc(C)c(NS(=O)(=O)c2ccc(NC(=O)COc3ccc(Cl)cc3Cl)cc2)c(C)c1 [Compound 22]
Activity [2]: Antagonist

Cc1ccc(OCC(=O)Nc2ccc(S(=O)(=O)Nc3c(C)cc(C)cc3C)cc2)cc1 [Compound 18]
Activity [2]: Agonist | VDR agonistic activity (degree, in words) [2]: modest agonist activity

CCOC(=O)C1=C(C)NC2=C(C(=O)CC(c3ccc(Cl)cc3)C2)C1c1ccc(F)cc1 (stereo not drawn) [Compound 2]
Activity [2]: Agonist

Cc1cccc(OCC(=O)Nc2ccc(S(=O)(=O)Nc3c(C)cc(C)cc3C)cc2)c1 [Compound 20]
Activity [2]: Agonist

CCSCCOC(=O)C1=C(C)NC2=C(C(=O)CC(c3ccc(OC)cc3)C2)C1c1ccccc1OC (stereo not drawn) [Compound 17]
Activity [2]: Agonist

CCSCCOC(=O)C1=C(C)NC2=C(C(=O)CC(c3ccc(OC)cc3)C2)C1c1ccccc1F (stereo not drawn) [Compound 13]
Activity [2]: Agonist

CCc1ccc(C2C(C(=O)OCCOc3ccccc3)=C(C)NC3=C2C(=O)CC(c2ccc(OC)cc2)C3)cc1 (stereo not drawn) [Compound 5]
Activity [2]: Agonist

COCCOC(=O)C1=C(C)NC2=C(C(=O)CC(c3ccc(Cl)cc3)C2)C1c1ccc(Br)cc1 (stereo not drawn) [Compound 8]
Activity [2]: Agonist

CCSCCOC(=O)C1=C(C)NC2=C(C(=O)CC(c3ccccc3)C2)C1c1ccccc1 (stereo not drawn) [Compound 1]
Activity [2]: Agonist | VDR agonistic activity (degree, in words) [2]: highest degree of agonistic activity

CCSCCOC(=O)C1=C(C)NC2=C(C(=O)CC(c3ccccc3OC)C2)C1c1ccccc1F (stereo not drawn) [Compound 6]
Activity [2]: Agonist

COc1ccc(C2C(C(=O)OCCOc3ccccc3)=C(C)NC3=C2C(=O)CC(c2ccccc2)C3)cc1O (stereo not drawn) [Compound 3]
Activity [2]: Agonist

CCSCCOC(=O)C1=C(C)NC2=C(C(=O)CC(c3ccc(Cl)cc3)C2)C1c1cccc(OC)c1 (stereo not drawn) [Compound 10]
PTH levels [1]: significantly reduced | Activity [2]: Agonist | PE-induced ANF (atrial natriuretic factor) activation in left ventricular tissue (mRNA) [4]: effectively suppressed | PE-induced heart weight/body weight (HW/BW) ratio [4]: effectively blocked | PE-induced lung weight/BW (LW/BW) ratio [4]: effectively blocked | anti-hypertrophic effect (ANP level) [5]: significant anti-hypertrophic effect | increase in serum calcium level compared to the vehicle, long term [3]: did not show any increase | increase in serum calcium level compared to the vehicle, short term [3]: did not show significant increase

COc1ccc(NS(=O)(=O)c2ccc(NC(=O)COc3ccccc3C)cc2)cc1 [Compound 24]
Activity [2]: Antagonist

From patent US9499488B2, “Vitamin D receptor agonists and uses thereof” (Beth Israel Deaconess Medical Center, Inc., priority 2011, dated 2016)
